In patent EP4610269A1, “UROKINASE PLASMINOGEN ACTIVATOR SURFACE RECEPTOR (UPAR) LIGANDS FOR DIAGNOSTIC OR THERAPEUTIC USE” (3B Pharmaceuticals GmbH, priority 2024, dated 2025):
Where a SMILES comes first, the peptide text is derived from it. Bridges are numbered along the chain shown (N, C = ends). [ ]: non-standard residue; d: D form. The star is where a group is joined. CH3O(CH2CH2O)11CH2CH2CO = COCCOCCOCCOCCOCCOCCOCCOCCOCCOCCOCCOCCC(=O)*; DOTA = O=C(O)CN1CCN(CC(=O)O)CCN(CC(=O)*)CCN(CC(=O)O)CC1; Phe(4-CN) = N#Cc1ccc(C[C@H](N)C(=O)O)cc1; Pro(cis-4-F) = O=C(O)[C@@H]1C[C@H](F)CN1; Pro(4R-NH2) = N[C@H]1CN[C@H](C(=O)O)C1; Ala(cPr) = N[C@@H](CC1CC1)C(=O)O; Hyp = O=C(O)[C@@H]1C[C@@H](O)CN1; hPhe = N[C@@H](CCc1ccccc1)C(=O)O; tBuAla = CC(C)(C)C[C@H](N)C(=O)O; Pentanoyl(4-Me) = CC(C)CCC(=O)*; Cha = N[C@@H](CC1CCCCC1)C(=O)O; Cit = NC(=O)NCCC[C@H](N)C(=O)O; NMeL = CN[C@@H](CC(C)C)C(=O)O; Butoxycarbonyl = CCCCOC(=O)*; hSer = N[C@@H](CCO)C(=O)O; Orn = NCCC[C@H](N)C(=O)O; Thz = O=C(O)[C@@H]1CSCN1; dNMeA = CN[C@H](C)C(=O)O; Nva = CCC[C@H](N)C(=O)O; Pentanoyl = CCCCC(=O)*

Columns and labels:
[1] = target: T1, uPAR-expressing HEC-265 human endometrial adenocarcinoma cells (Homo sapiens, UniProt Q03405); assay: Competitive FACS binding assay; conditions: pIC50 category of FACS binding
T1 construct: Cell surface uPAR-expressing HEC-265 human endometrial adenocarcinoma cells; host or cells: HEC-265
In short: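 HEC-265 cells incubated 1 h at 4 °C with 10 nM biotinylated uPAR peptide tracer plus increasing test compound, then stained with APC-streptavidin on ice. Median APC fluorescence by flow cytometry; 4PL fit gives pIC50.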

human uPAR (uPAR-Fc) = target: T2, human uPAR (uPAR-Fc) (Homo sapiens, UniProt Q03405); assay: Surface plasmon resonance (SPR) assay, single cycle kinetics; type: binding; conditions: pKD category for uPAR SPR activity assay; uPAR-Fc on Protein A-Chip, single cycle kinetics, 25°C; read-out: pKD CAT (converted)
T2 construct: comprising amino acids Leu23-Arg303 according to UniProt entry Q03405.1; purchased R&D Systems 10378-UK-100
In short: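 uPAR-Fc (Leu23-Arg303 extracellular domains, human IgG1 Fc) captured on Protein A chip to ~2000 RU; single-cycle kinetics at 25°C in HEPES running buffer pH 7.4 with 0.1% DMSO. KD from double-referenced sensorgrams fitted to 1:1 Langmuir model, reported as pKD.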

T1 sequence (Q03405 23-335): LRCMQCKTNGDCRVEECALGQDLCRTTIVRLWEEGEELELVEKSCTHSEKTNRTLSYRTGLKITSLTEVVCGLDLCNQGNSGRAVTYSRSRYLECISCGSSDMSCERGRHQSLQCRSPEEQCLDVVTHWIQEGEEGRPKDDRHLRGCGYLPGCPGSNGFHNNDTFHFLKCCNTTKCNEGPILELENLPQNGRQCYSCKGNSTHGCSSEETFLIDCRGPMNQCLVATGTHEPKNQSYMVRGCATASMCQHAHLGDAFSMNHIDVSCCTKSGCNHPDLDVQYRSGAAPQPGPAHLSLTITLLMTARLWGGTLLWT
T2 sequence (Q03405 23-303): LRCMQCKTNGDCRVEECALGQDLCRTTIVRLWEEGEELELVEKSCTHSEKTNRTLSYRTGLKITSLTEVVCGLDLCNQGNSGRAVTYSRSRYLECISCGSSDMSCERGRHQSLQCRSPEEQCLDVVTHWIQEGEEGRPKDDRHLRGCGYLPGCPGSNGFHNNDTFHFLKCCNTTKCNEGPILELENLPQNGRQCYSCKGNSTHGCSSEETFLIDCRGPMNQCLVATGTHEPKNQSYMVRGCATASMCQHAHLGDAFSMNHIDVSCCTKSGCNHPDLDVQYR

Row | SMILES | IC50 [1] [nM] | Kd (human uPAR (uPAR-Fc)) [nM]
1 | CCCCC(=O)N[C@H]1CSSC[C@@H](C(N)=O)NC(=O)[C@H](CCC)NC(=O)[C@H]([C@@H](C)CC)NC(=O)[C@@H]2C[C@@H](O)CN2C(=O)[C@@H]2CCCN2C(=O)[C@H](Cc2ccccc2)NC(=O)[C@H](CCc2ccccc2)NC(=O)[C@H](CCC(N)=O)NC(=O)[C@H](CCCNC(=N)N)NC1=O [UPAR-366, Pent-[Cys-Arg-Gln-Hfe-Phe-Pro-Hyp-Ile-Nva-Cys]-NH2] (Pentanoyl-CRQ[hPhe]FP[Hyp]I[Nva]C-NH2; disulfide 1-10) | 12.6 to 31.6 | 10 to 100
2 | CC[C@H](C)[C@@H]1NC(=O)[C@@H](CCCCNC(=O)CN2CCN(CC(=O)O)CCN(CC(=O)O)CCN(CC(=O)O)CC2)NC(=O)[C@@H]2CCCN2C(=O)[C@H](Cc2ccccc2)NC(=O)[C@H](Cc2ccc(O)cc2)NC(=O)[C@H](CCC(N)=O)NC(=O)[C@H](CCCNC(=N)N)NC(=O)[C@@H](NC(=O)CCC(C)C)CSSC[C@@H](C(N)=O)NC(=O)[C@H](CC(C)C)NC1=O [UPAR-367, iHex-[Cys-Arg-Gln-Tyr-Phe-Pro-lys(DOTA)-Ile-Leu-Cys]-NH2] ({Pentanoyl(4-Me)}-CRQYFP[dK](DOTA)ILC-NH2; disulfide 1-10) | ≤ 10 | 10 to 100
3 | CCCCOC(=O)N[C@H]1CSSC[C@@H](C(N)=O)NC(=O)[C@H](CCO)NC(=O)[C@H]([C@@H](C)CC)NC(=O)[C@@H]2C[C@@H](O)CN2C(=O)[C@@H]2C[C@H](F)CN2C(=O)[C@H](Cc2ccccc2)NC(=O)[C@H](Cc2ccc(O)cc2)NC(=O)[C@H](CCCCNC(=O)CN2CCN(CC(=O)O)CCN(CC(=O)O)CCN(CC(=O)O)CC2)NC(=O)[C@H]([C@@H](C)O)NC1=O [UPAR-368, Butoc-[Cys-Thr-Lys(DOTA)-Tyr-Phe-4Cfp-Hyp-Ile-Hse-Cys]-NH2] (Butoxycarbonyl-CTK(DOTA)YF[Pro(cis-4-F)][Hyp]I[hSer]C-NH2; disulfide 1-10) | ≤ 10 | 10 to 100
4 | CCCCC(=O)N[C@H]1CSSC[C@@H](C(N)=O)NC(=O)[C@H](CCC)NC(=O)[C@H](CC(C)(C)C)NC(=O)[C@@H]2C[C@@H](O)CN2C(=O)[C@@H]2CCCN2C(=O)[C@H](Cc2ccccc2)NC(=O)[C@H](Cc2ccc(O)cc2)NC(=O)[C@H](CCC(N)=O)NC(=O)[C@H](CCCNC(=N)N)NC1=O [UPAR-370, Pent-[Cys-Arg-Gln-Tyr-Phe-Pro-Hyp-Npg-Nva-Cys]-NH2] (Pentanoyl-CRQYFP[Hyp][tBuAla][Nva]C-NH2; disulfide 1-10) | ≤ 10 | < 1.58
5 | CC[C@H](C)[C@@H]1NC(=O)[C@@H]2C[C@@H](O)CN2C(=O)[C@@H]2CCCN2C(=O)[C@H](Cc2ccccc2)NC(=O)[C@H](Cc2ccc(O)cc2)NC(=O)[C@H](CCC(N)=O)NC(=O)[C@H](CCCNC(N)=O)NC(=O)[C@@H](NC(=O)[C@H](CC(C)C)NC(=O)CN2CCN(CC(=O)O)CCN(CC(=O)O)CCN(CC(=O)O)CC2)CSSC[C@@H](C(N)=O)NC(=O)[C@H](CC(C)C)N(C)C1=O [UPAR-371, DOTA-Leu-[Cys-Cit-Gln-Tyr-Phe-Pro-Hyp-Ile-Nml-Cys]-NH2] ({DOTA}-LC[Cit]QYFP[Hyp]I[NMeL]C-NH2; disulfide 2-11) | ≥ 126 | > 100
6 | CCC[C@@H]1NC(=O)[C@H]([C@@H](C)CC)NC(=O)[C@@H]2C[C@@H](O)CN2C(=O)[C@@H]2CCCN2C(=O)[C@H](Cc2ccccc2)NC(=O)[C@H](Cc2ccc(O)cc2)NC(=O)[C@H](CCC(N)=O)NC(=O)[C@H](CCCNC(=N)N)NC(=O)[C@@H](NC(=O)[C@H](CC2CCCCC2)NC(C)=O)CSSC[C@@H](C(N)=O)NC1=O [UPAR-372, Ac-Cha-[Cys-Arg-Gln-Tyr-Phe-Pro-Hyp-Ile-Nva-Cys]-NH2] (Ac-[Cha]CRQYFP[Hyp]I[Nva]C-NH2; disulfide 2-11) | ≤ 10 | < 1.58
7 | CCCCC(=O)N[C@H]1CSSC[C@@H](C(N)=O)NC(=O)[C@H](CCC)NC(=O)[C@H]([C@@H](C)CC)NC(=O)[C@@H]2C[C@@H](O)CN2C(=O)[C@@H]2CCCN2C(=O)[C@H](Cc2ccccc2)NC(=O)[C@H](CC2CCCCC2)NC(=O)[C@H](CCC(N)=O)NC(=O)[C@H](CCCNC(=N)N)NC1=O [UPAR-373, Pent-[Cys-Arg-Gln-Cha-Phe-Pro-Hyp-Ile-Nva-Cys]-NH2] (Pentanoyl-CRQ[Cha]FP[Hyp]I[Nva]C-NH2; disulfide 1-10) | ≤ 10 | < 1.58
8 | CC[C@H](C)[C@@H]1NC(=O)[C@@H](C)NC(=O)[C@@H]2CSCN2C(=O)[C@H](Cc2ccccc2)NC(=O)[C@H](Cc2ccc(O)cc2)NC(=O)[C@H](CCC(N)=O)NC(=O)[C@H](CCCNC(N)=O)NC(=O)[C@@H](NC(=O)CCC(C)C)CSSC[C@@H](C(N)=O)NC(=O)[C@H](CC(C)C)NC1=O [UPAR-375, iHex-[Cys-Cit-Gln-Tyr-Phe-Eaz-ala-Ile-Leu-Cys]-NH2] ({Pentanoyl(4-Me)}-C[Cit]QYF[Thz][dA]ILC-NH2; disulfide 1-10) | ≤ 10 | < 1.58
9 | CCCCC(=O)N[C@H]1CSSC[C@@H](C(N)=O)NC(=O)[C@H](CCC)NC(=O)[C@H]([C@@H](C)CC)NC(=O)[C@@H]2C[C@@H](N)CN2C(=O)[C@@H]2CCCN2C(=O)[C@H](Cc2ccccc2)NC(=O)[C@H](Cc2ccc(O)cc2)NC(=O)[C@H](CCCCNC(=O)CN2CCN(CC(=O)O)CCN(CC(=O)O)CCN(CC(=O)O)CC2)NC(=O)[C@H](CCCNC(N)=O)NC1=O [UPAR-377, Pent-[Cys-Cit-Lys(DOTA)-Tyr-Phe-Pro-Tap-Ile-Nva-Cys]-NH2] (Pentanoyl-C[Cit]K(DOTA)YFP[Pro(4R-NH2)]I[Nva]C-NH2; disulfide 1-10) | ≤ 10 | < 1.58
10 | CCCCOC(=O)N[C@H]1CSSC[C@@H](C(N)=O)NC(=O)[C@H](CCC)NC(=O)[C@H]([C@@H](C)CC)NC(=O)[C@@H]2C[C@@H](O)CN2C(=O)[C@@H]2C[C@H](F)CN2C(=O)[C@H](Cc2ccc(C#N)cc2)NC(=O)[C@H](Cc2ccc(O)cc2)NC(=O)[C@H](CCCCNC(=O)CN2CCN(CC(=O)O)CCN(CC(=O)O)CCN(CC(=O)O)CC2)NC(=O)[C@H]([C@@H](C)O)NC1=O [UPAR-378, Butoc-[Cys-Thr-Lys(DOTA)-Tyr-Pnf-4Cfp-Hyp-Ile-Nva-Cys]-NH2] (Butoxycarbonyl-CTK(DOTA)Y[Phe(4-CN)][Pro(cis-4-F)][Hyp]I[Nva]C-NH2; disulfide 1-10) | ≤ 10 | < 1.58
11 | CCCCC(=O)N[C@H]1CSSC[C@@H](C(N)=O)NC(=O)[C@H](CC2CC2)NC(=O)[C@H]([C@@H](C)CC)NC(=O)[C@@H]2C[C@@H](O)CN2C(=O)[C@@H]2CCCN2C(=O)[C@H](Cc2ccccc2)NC(=O)[C@H](Cc2ccc(O)cc2)NC(=O)[C@H](CCC(N)=O)NC(=O)[C@H](CCCNC(=N)N)NC1=O [UPAR-379, Pent-[Cys-Arg-Gln-Tyr-Phe-Pro-Hyp-Ile-Cpra-Cys]-NHz] (Pentanoyl-CRQYFP[Hyp]I[Ala(cPr)]C-NH2; disulfide 1-10) | ≤ 10 | < 1.58
12 | CCCCC(=O)N[C@H]1CSSC[C@@H](C(N)=O)NC(=O)[C@H](COC)NC(=O)[C@H]([C@@H](C)CC)NC(=O)[C@@H]2C[C@@H](O)CN2C(=O)[C@@H]2CCCN2C(=O)[C@H](Cc2ccccc2)NC(=O)[C@H](Cc2ccc(O)cc2)NC(=O)[C@H](CCCCNC(=O)CN2CCN(CC(=O)O)CCN(CC(=O)O)CCN(CC(=O)O)CC2)NC(=O)[C@H](CCCNC(N)=O)NC1=O [UPAR-380, Pent-[Cys-Cit-Lys(DOTA)-Tyr-Phe-Pro-Hyp-Ile-Ser(Me)-Cys]-NH2] (Pentanoyl-C[Cit]K(DOTA)YFP[Hyp]IS(Me)C-NH2; disulfide 1-10) | ≤ 10 | 1.58 to 10
13 | CC[C@H](C)[C@@H]1NC(=O)[C@H](C)NC(=O)[C@@H]2CCCN2C(=O)[C@H](Cc2ccccc2)NC(=O)[C@H](Cc2ccc(O)cc2)NC(=O)[C@H](CCC(N)=O)NC(=O)[C@H](CCCNC(=N)N)NC(=O)[C@@H](NC(=O)[C@H](CC(C)C)NC(C)=O)CSSC[C@@H](C(N)=O)NC(=O)[C@H](CC(C)C)NC1=O [UPAR-381, Ac-Leu-[Cys-Arg-Gln-Tyr-Phe-Pro-Ala-Ile-Leu-Cys]-NH2] (Ac-LCRQYFPAILC-NH2; disulfide 2-11) | ≤ 10 | < 1.58
14 | CCCCC(=O)N[C@H]1CSSC[C@@H](C(N)=O)NC(=O)[C@H](CCC)NC(=O)[C@H]([C@@H](C)CC)NC(=O)[C@@H]2C[C@@H](O)CN2C(=O)[C@@H]2CCCN2C(=O)[C@H](Cc2ccccc2)NC(=O)[C@H](Cc2ccc(O)cc2)NC(=O)[C@H](CCCCNC(=O)CN2CCN(CC(=O)O)CCN(CC(=O)O)CCN(CC(=O)O)CC2)NC(=O)[C@H](CCCNC(=O)CCOCCOCCOCCOCCOCCOCCOCCOCCOCCOCCOCCOC)NC1=O [UPAR-383, Pent-[Cys-Orn(mPEG12)-Lys(DOTA)-Tyr-Phe-Pro-Hyp-Ile-Nva-Cys]-NHz] (Pentanoyl-C[Orn](CH3O(CH2CH2O)11CH2CH2CO)K(DOTA)YFP[Hyp]I[Nva]C-NH2; disulfide 1-10) | ≤ 10 | < 1.58
15 | CCCCC(=O)N[C@H]1CSSC[C@@H](C(N)=O)NC(=O)[C@H](CCC)NC(=O)[C@H]([C@@H](C)CC)NC(=O)[C@@H](C)N(C)C(=O)[C@@H]2CCCN2C(=O)[C@H](Cc2ccccc2)NC(=O)[C@H](Cc2ccc(O)cc2)NC(=O)[C@H](CCCCNC(=O)CN2CCN(CC(=O)O)CCN(CC(=O)O)CCN(CC(=O)O)CC2)NC(=O)[C@H](CCCNC(N)=O)NC1=O [UPAR-384, Pent-[Cys-Cit-Lys(DOTA)-Tyr-Phe-Pro-nma-Ile-Nva-Cys]-NH2] (Pentanoyl-C[Cit]K(DOTA)YFP[dNMeA]I[Nva]C-NH2; disulfide 1-10) | ≤ 10 | < 1.58
